System: phospho-AMPK (Thr-172) (p-AMPK)
Assay: p-AMPK expression by Western blotting in normal human epidermal keratinocytes (p-AMPK/GAPDH ratio relative to control)
Format: cell-based
Settings: 12 hours incubation
Protocol: Normal human epidermal keratinocytes are seeded at 180 000 cells per well and cultured in SFM culture medium (supplier Gibco) supplemented with 0.25 ng/ml EGF, 25 μg/ml of pituitary extract and 25 μg/ml gentamicin, up to confluence, and incubated in a humid oven at 37° C. and 5% CO2. The culture medium was then replaced with test medium (SFM (Gibco) supplemented with 25 μg/ml gentamicin) containing or not containing (control) the test compounds, the combinations or the reference (AICAR—(5-amino-4-imidazolecarboxamide riboside) at 500 μM). The cells were then incubated for 12 hours.
The level of expression of p-AMPK was analyzed by Western blotting.
At the end of the incubation, the proteins were extracted and quantified and then separated by electrophoresis on 10% polyacrylamide gel and then transferred onto a nitrocellulose membrane.
Between each successive revelation, the antibodies were detached using a “stripping” buffer. The images were acquired with a Fuji LAS 3000 chemiluminescence scanner (Fujifilm) and the densitometric analyses were performed using the Multigauge software (Fujifilm).
An increase in the phosphorylated form of AMPK (active form of the enzyme) relative to the control is evaluated in this test.
Expressed in the form of the p-AMPK/GAPDH ratio relative to the control (100%): […]

Structure (SMILES)	p-AMPK/GAPDH ratio relative to the control (100%) (test compound 1 μM)	p-AMPK/GAPDH ratio relative to the control (100%) (test compound 10 μM)	p-AMPK/GAPDH ratio relative to the control (100%) (test compound 100 μM)
COc1ccc([C@@H](O)[C@H](O)c2ccc(OC)cc2)cc1 [Compound 1]	133%	171%	198%
COc1cc(C(O)C(O)c2ccc(O)c(OC)c2)ccc1O (stereo not drawn) [Compound 3]	112%	147%	158%
COc1ccc(C(O)[C@H](O)c2ccc(OC)cc2)cc1 (stereo partly drawn) [Compound 2]	94%	134%	149%
Oc1ccc(C(O)C(O)c2cc(O)cc(O)c2)cc1 (stereo not drawn) [Compound 4]	132%	140%	159%

From patent publication US10144690B2, “1,2-diphenylethylene glycol compounds for combating aging of the skin, and cosmetic use thereof” (L'OREAL, priority 2014, dated 2018)
